Assay results taken from US20210220379A1, “PERITONEAL SODIUM-GLUCOSE TRANSPORTER (SGLT) INHIBITORS FOR IMPROVEMENT OF PERITONEAL DIALYSIS” (MOR RESEARCH APPLICATIONS LTD., priority 2017, published 2021).

How the values were obtained:
[1] = test system: kidney glucose reabsorption; experiment: Glycosuria by urine stick in healthy CD-1 mice after an SGLT inhibitor; type: in vivo; settings: phlorizin 20 mg/kg single SC injection
Protocol: (§1) Dapagliflozin (0.1 mg/kg) was given to the mice by oral gavage. Control mice were not given any of the SGLT blockers. Tail blood glucose was tested by glucose test meter immediately before (time 0) and during 2 hours after injection. Glucose levels in the urine were tested by standard urine sticks (Multistix® 10 SG, Siemens Healthcare Diagnostics, Tarrytown, N.Y.).

[2] = test system: peritoneal glucose transport; experiment: Blood glucose in healthy CD-1 mice after intraperitoneal glucose-containing PD fluid; type: in vivo; settings: inhibitor given 15 min before intraperitoneal PD fluid, results not shown
Protocol: as §1

[3] = test system: peritoneal glucose transport; experiment: Renal failure mice: SC phlorizin followed by intraperitoneal PDF; type: in vivo; settings: renal failure CD-1 mice, phlorizin 20 mg/kg SC
Protocol: (§2) Renal failure in mice and rats was induced by bilateral ureteral ligation, based on the procedure described, for example, in Kim et al. (2015) (Am J Physiol Renal Physio., 308(2):F131-139) and references cited therein. Briefly, mice were anesthetized with an intraperitoneal injection of a cocktail containing ketamine (200 mg/kg body weight) and xylazine (16 mg/kg body weight). After exposure of both the left and right kidneys through flank incision, right and left ureters were ligated completely near the kidney pelvis using a 5-0 silk tie.
A standard commercial PD fluid (Dianeal® 1.5% dextrose), diluted 1:4 in saline (comprising 0.375% glucose) was used. Blood glucose levels were measured by glucometer at indicated time points. Area under the curve (AUC) was calculated for all mice and used to compare the two groups. Concentrations of glucose in the peritoneum fluid measured 30 min after administration of PDF are depicted in FIG. 3C.

[4] = test system: peritoneal glucose transport; experiment: Renal failure mice: SC phlorizin followed by sodium-free PDF; type: in vivo; settings: renal failure CD-1 mice; phlorizin 20 mg/kg SC; sodium free PDF 2 ml, 0.375% glucose
Protocol: as §2
Dependency of glucose transport on SGLT inhibition during peritoneal dialysis with PDF not containing sodium was assessed.

[5] = test system: peritoneal glucose transport; experiment: Uremic mice: phlorizin-containing peritoneal dialysis fluid (PPDF) intraperitoneally; type: in vivo; settings: uremic CD-1 mice; 2 ml Dianeal 1.5% dextrose with 0.6 μM phlorizin (PPDF) i.p.; compared with separate applications of phlorizin and PDF; P<0.01 vs phlorizin-free PDF
Protocol: as §2
Blood glucose levels were measured by glucometer at indicated time points, and area under the curve (AUC) was calculated for all mice and used to compare the two groups (FIG. 5C; P<0.01).

[6] = test system: glucose absorption from peritoneal fluid; experiment: Uremic rat peritoneal dialysis model: PDF with or without phlorizin; type: in vivo, Sprague Dawley (SD) rats; settings: uremic SD rats, 120 min dwell
Protocol: as §2
Animal experiments were approved by local Animal Care Committee. Male Sprague Dawley (SD) rats 200-250 gr, we purchased from Envigo RMS (Jerusalem, Israel), allowed to acclimatize for 1 week before the beginning of the experiment. Animals were anesthetized by intramuscular administration of a mixture of ketamine (200 mg/kg body wt) and xylazine (16 mg/kg body wt). Renal failure was induced by bilateral ureteral ligation as described in Materials and Methods. […] After anesthesia temporary catheters were introduced into the peritoneal cavity.
To PDF of both group 100 μl of fluorescein isothiocyanate-dextran was added, average molecular weight 2,000,000 (FITC Dextran −2000, 100 μg/ml, Sigma-Aldrich®, Israel). Dialysate and tail blood samples were obtained during 120 min dwell, every 15 min. Blood glucose level was measured by standard glucometer, dialysate glucose was measured in the chemistry laboratory of the Soroka Medical Center. Dilution of FITC-dextran was detected by florescence of dialysis fluid samples measured with a 96-well fluorimeter (SpectraMax® Paradigm® plate reader, Molecular Devices) at an emission wavelength of 535 nm and an excitation wavelength of 485 nm. Concentrations of unknown samples were calculated from a standard curve by extrapolation in a linear regression model.

O=C(CCc1ccc(O)cc1)c1c(O)cc(O)cc1O[C@@H]1O[C@H](CO)[C@@H](O)[C@H](O)[C@H]1O [phlorizin, phloretin-2′-β-D-glucopyranoside]
Duration of glycosuria [1]: more than 2 hours | Glucose levels in urine (glycosuria score, urine stick) ([1]; dapagliflozin 0.1 mg/kg oral gavage): significant glycosuria | Blood glucose levels vs control group [2]: significantly lower | Blood glucose levels and AUC vs saline control ([3]; 2 ml Dianeal 1.5% dextrose diluted 1:4 (0.375% glucose) i.p., P<0.05): mitigated hyperglycemia | Glucose levels in peritoneum fluid vs control ([3]; 30 minutes from instillation of PDF): significantly elevated | Blood glucose levels vs control group [4]: no differences | Reduction of blood glucose levels (AUC) [5]: significantly more effective | Blood glucose levels vs control group ([6]; 20 ml PDF (1.5% Dianeal diluted 1:4) with phlorizin 100 μg/ml, P<0.01): Significantly lower | FITC-dextran concentration in PDF (dilution) vs control ([6]; PDF with phlorizin 100 μg/ml, P<0.05): significant diluted | PDF (dialysate) glucose level vs control group ([6]; PDF with phlorizin 100 μg/ml, p<0.001): significant declined
